Structures are written as SMILES. Where only a bound is given, the exact number is not on record here.

For assay [1], the target named is MARK2 (Homo sapiens, UniProt Q7KZI7). The assay is described as follows: Kinase panel, radiometric 33P filter binding. The following applies: read-out: % activity remaining.
Source text: (§1) filter binding assay using 33P-g-ATPat the MRC PPU International Centre for Kinase Profiling, University of
For assay [2], the target named is S6K1 (Homo sapiens, UniProt P23443). The assay is described as follows: Kinase panel, radiometric 33P filter binding. Particulars: read-out: % activity remaining.
Source text: as §1
In assay [3] the target is IRR (Homo sapiens, UniProt P14616). The assay is described as follows: Kinase panel, radiometric 33P filter binding. Particulars: read-out: % activity remaining.
Source text: as §1
The target in assay [4] is SGK1 (Homo sapiens, UniProt O00141). The assay is described as follows: Kinase panel, radiometric 33P filter binding. The following applies: read-out: % activity remaining.
Source text: as §1
For assay [5], the target named is EPH-B1 (Homo sapiens, UniProt P54762). The assay is described as follows: Kinase panel, radiometric 33P filter binding. Particulars: read-out: % activity remaining.
Source text: as §1
The target of assay [6] is Aurora A (Homo sapiens, UniProt O14965). The assay is described as follows: Kinase panel, radiometric 33P filter binding. Particulars: read-out: % activity remaining.
Source text: as §1
For assay [7], the target named is ERK5 (Homo sapiens, UniProt Q13164). The assay is described as follows: Kinase panel, radiometric 33P filter binding. Particulars: read-out: % activity remaining.
Source text: as §1
Assay [8] has as its target IRAK4 (Homo sapiens, UniProt Q9NWZ3). The assay is described as follows: Kinase panel, radiometric 33P filter binding. The following applies: read-out: % activity remaining.
Assay [9] addresses CSK (Homo sapiens, UniProt P41240). The assay is described as follows: Kinase panel, radiometric 33P filter binding. The following applies: read-out: % activity remaining.
The target in assay [10] is TESK1 (Homo sapiens, UniProt Q15569). The assay is described as follows: Kinase panel, radiometric 33P filter binding. The following applies: read-out: % activity remaining.
Source text: as §1
The target in assay [11] is MARK3 (Homo sapiens, UniProt P27448). The assay is described as follows: Kinase panel, radiometric 33P filter binding. The following applies: read-out: % activity remaining.
Source text: as §1
In assay [12] the target is BTK (Homo sapiens, UniProt Q06187). The assay is described as follows: Kinase panel, radiometric 33P filter binding. Particulars: read-out: % activity remaining.
The target of assay [13] is IGF-1R (Homo sapiens, UniProt P08069). The assay is described as follows: Kinase panel, radiometric 33P filter binding. Particulars: read-out: % activity remaining.
Source text: as §1
Assay [14] deals with IKKe (Homo sapiens, UniProt Q14164). The assay is described as follows: Kinase panel, radiometric 33P filter binding. The following applies: read-out: % activity remaining.
Source text: as §1
Kinase % activity remaining s.d.
The target in assay [15] is RSK2 (Homo sapiens, UniProt P51812). The assay is described as follows: Kinase panel, radiometric 33P filter binding. Particulars: read-out: % activity remaining.
Source text: as §1
In assay [16] the target is EPH-B2 (Homo sapiens, UniProt P29323). The assay is described as follows: Kinase panel, radiometric 33P filter binding. The following applies: read-out: % activity remaining.
Source text: as §1
Assay [17] addresses CK1γ2 (Homo sapiens, UniProt P78368). The assay is described as follows: Kinase panel, radiometric 33P filter binding. Particulars: read-out: % activity remaining.
Source text: as §1
Assay [18] has as its target DAPK1 (Homo sapiens, UniProt P53355). The assay is described as follows: Kinase panel, radiometric 33P filter binding. Particulars: read-out: % activity remaining.
Source text: as §1
Assay [19] has as its target MPSK1 (Homo sapiens, UniProt O75716). The assay is described as follows: Kinase panel, radiometric 33P filter binding. The following applies: read-out: % activity remaining.
Source text: as §1
Assay [20] addresses PDK1 (Homo sapiens, UniProt O15530). The assay is described as follows: Kinase panel, radiometric 33P filter binding. Particulars: read-out: % activity remaining.
Source text: as §1
Assay [21] addresses JNK1 (Homo sapiens, UniProt P45983). The assay is described as follows: Kinase panel, radiometric 33P filter binding. Particulars: read-out: % activity remaining.
Source text: as §1
Assay [22] deals with EPH-B4 (Homo sapiens, UniProt P54760). The assay is described as follows: Kinase panel, radiometric 33P filter binding. The following applies: read-out: % activity remaining.
Source text: as §1
Assay [23] addresses Lck (Homo sapiens, UniProt P06239). The assay is described as follows: Kinase panel, radiometric 33P filter binding. The following applies: read-out: % activity remaining.
In assay [24] the target is CK2 (Homo sapiens, UniProt P68400). The assay is described as follows: Kinase panel, radiometric 33P filter binding. The following applies: read-out: % activity remaining.
Source text: as §1
For assay [25], the target named is T1, PI5P4Kα (Homo sapiens, UniProt P48426).
T1 sequence (P48426 1-406): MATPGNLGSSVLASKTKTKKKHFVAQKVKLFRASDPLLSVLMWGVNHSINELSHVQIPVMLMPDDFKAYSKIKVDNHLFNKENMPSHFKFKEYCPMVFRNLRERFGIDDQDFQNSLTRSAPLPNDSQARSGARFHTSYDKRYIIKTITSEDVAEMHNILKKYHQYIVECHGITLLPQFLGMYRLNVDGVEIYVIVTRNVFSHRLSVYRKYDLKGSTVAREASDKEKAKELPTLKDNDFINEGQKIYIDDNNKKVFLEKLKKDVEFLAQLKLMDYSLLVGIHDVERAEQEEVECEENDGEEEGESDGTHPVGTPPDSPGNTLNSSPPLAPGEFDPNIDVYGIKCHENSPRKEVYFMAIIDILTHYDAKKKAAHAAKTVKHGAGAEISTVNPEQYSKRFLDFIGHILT
The assay is described as follows: Thermal shift assay. The following applies: read-out: ΔTm PI5P4Kα, thermal shift, compound 63 μM.

Assay [26] addresses T2, PI5P4Kβ (Homo sapiens, UniProt P78356).
T2 sequence (P78356 1-416): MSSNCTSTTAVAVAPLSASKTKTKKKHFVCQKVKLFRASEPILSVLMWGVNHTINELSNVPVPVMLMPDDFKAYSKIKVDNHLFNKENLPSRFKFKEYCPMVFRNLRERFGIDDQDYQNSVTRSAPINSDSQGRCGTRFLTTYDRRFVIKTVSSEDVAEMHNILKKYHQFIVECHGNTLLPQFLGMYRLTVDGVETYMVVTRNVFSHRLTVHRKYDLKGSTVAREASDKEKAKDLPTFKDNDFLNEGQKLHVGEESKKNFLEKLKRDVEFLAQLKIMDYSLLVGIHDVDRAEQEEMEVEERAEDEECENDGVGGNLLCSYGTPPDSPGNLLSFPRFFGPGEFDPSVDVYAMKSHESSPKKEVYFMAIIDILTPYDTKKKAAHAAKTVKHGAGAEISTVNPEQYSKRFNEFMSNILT
Also on record: method as in ref 30 (a number printed in a supplementary file, which may have a reference list of its own: not looked up in the article's list). The following applies: 32P-ATP/PI5P incorporation, showed 'small but significant stimulation'; cited from earlier work.

Assay [27] relates to PI5P4Kγ. Also noted: method as in ref 30 (1), ref 23 (2). Particulars: 32P-ATP/PI5P incorporation; ref 30 (1), ref 23 (2); cited from earlier work.

Chain of Lck (P06239 whole entry): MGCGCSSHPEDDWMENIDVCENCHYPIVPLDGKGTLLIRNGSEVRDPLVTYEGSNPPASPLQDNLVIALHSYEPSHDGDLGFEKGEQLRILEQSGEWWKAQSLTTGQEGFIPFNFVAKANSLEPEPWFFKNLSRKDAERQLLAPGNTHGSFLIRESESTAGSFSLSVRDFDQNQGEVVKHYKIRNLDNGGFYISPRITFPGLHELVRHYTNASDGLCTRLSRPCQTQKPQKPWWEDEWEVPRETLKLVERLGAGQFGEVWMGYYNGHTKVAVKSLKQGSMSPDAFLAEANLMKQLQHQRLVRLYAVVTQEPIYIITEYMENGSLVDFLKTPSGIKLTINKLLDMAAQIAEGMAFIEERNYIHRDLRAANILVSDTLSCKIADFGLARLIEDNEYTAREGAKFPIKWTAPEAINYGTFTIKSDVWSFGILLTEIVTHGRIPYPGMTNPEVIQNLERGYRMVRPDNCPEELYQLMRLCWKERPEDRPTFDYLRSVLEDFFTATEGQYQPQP
Chain of S6K1 (P23443 whole entry): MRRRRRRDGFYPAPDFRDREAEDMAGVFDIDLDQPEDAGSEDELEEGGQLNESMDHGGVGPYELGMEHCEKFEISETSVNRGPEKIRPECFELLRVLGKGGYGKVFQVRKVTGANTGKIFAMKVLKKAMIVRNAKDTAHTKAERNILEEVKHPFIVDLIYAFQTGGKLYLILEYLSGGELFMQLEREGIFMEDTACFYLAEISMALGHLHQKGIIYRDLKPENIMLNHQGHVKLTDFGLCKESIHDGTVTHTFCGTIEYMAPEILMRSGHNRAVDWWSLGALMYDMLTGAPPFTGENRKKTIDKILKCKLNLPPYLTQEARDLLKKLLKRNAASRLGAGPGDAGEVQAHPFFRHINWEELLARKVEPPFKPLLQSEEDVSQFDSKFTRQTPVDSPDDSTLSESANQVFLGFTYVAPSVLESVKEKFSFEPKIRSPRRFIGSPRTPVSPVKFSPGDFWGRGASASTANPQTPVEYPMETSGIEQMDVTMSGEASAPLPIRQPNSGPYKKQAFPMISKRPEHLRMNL
Chain of MPSK1 (O75716 whole entry): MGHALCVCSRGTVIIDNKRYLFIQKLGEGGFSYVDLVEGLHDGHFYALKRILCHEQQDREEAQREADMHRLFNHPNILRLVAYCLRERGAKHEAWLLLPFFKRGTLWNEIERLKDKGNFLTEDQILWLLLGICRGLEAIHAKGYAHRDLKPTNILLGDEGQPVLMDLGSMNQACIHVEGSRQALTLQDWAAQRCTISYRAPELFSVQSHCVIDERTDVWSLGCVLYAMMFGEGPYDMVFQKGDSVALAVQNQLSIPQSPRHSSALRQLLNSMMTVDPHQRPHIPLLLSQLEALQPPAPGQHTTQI
Chain of PDK1 (O15530 whole entry): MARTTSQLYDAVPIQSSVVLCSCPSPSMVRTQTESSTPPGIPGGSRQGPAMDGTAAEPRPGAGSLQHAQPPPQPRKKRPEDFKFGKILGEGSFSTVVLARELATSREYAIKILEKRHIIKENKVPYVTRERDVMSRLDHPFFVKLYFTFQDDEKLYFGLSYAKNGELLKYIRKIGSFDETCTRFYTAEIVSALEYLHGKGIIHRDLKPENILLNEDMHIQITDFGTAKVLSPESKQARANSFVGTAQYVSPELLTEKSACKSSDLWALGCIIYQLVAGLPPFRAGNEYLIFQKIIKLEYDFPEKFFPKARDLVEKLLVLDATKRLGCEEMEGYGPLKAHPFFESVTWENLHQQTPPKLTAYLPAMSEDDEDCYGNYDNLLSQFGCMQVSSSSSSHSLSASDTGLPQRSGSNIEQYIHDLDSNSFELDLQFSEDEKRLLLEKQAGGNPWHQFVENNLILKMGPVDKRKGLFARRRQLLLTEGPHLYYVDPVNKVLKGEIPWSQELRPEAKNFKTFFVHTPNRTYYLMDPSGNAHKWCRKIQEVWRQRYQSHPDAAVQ
Chain of IGF-1R (P08069 31-1367): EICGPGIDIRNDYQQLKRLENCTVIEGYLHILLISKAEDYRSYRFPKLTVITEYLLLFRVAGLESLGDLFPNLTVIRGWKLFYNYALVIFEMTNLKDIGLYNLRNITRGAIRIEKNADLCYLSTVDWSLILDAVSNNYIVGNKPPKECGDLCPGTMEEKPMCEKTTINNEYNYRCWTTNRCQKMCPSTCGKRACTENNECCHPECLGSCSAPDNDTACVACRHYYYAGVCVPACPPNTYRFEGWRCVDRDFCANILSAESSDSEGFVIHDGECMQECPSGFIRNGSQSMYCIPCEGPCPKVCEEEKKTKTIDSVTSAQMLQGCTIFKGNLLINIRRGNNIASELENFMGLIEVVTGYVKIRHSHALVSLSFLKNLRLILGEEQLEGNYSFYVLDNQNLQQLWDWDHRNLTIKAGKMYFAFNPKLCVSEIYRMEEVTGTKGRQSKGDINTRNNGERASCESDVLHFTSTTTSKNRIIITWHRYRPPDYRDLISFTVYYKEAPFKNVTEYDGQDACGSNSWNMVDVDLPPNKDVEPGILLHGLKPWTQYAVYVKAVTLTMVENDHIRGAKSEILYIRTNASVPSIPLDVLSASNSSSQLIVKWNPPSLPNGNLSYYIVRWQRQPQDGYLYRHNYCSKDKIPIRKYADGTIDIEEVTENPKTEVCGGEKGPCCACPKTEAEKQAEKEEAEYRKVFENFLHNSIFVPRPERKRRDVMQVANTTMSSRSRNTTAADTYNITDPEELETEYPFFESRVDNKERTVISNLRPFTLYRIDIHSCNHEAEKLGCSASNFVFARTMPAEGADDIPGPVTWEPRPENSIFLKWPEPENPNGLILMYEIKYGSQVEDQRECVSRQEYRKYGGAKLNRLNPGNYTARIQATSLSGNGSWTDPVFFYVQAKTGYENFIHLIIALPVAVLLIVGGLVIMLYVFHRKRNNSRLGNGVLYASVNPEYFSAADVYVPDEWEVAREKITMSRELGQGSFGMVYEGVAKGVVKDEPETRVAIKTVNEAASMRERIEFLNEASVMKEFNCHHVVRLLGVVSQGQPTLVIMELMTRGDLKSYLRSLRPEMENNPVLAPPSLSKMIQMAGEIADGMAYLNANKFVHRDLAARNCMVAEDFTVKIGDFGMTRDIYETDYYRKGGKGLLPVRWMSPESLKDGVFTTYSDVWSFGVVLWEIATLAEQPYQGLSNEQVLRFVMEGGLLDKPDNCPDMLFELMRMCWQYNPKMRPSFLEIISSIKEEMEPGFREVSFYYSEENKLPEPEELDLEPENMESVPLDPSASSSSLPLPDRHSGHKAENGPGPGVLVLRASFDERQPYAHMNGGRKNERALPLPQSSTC
Chain of TESK1 (Q15569 whole entry): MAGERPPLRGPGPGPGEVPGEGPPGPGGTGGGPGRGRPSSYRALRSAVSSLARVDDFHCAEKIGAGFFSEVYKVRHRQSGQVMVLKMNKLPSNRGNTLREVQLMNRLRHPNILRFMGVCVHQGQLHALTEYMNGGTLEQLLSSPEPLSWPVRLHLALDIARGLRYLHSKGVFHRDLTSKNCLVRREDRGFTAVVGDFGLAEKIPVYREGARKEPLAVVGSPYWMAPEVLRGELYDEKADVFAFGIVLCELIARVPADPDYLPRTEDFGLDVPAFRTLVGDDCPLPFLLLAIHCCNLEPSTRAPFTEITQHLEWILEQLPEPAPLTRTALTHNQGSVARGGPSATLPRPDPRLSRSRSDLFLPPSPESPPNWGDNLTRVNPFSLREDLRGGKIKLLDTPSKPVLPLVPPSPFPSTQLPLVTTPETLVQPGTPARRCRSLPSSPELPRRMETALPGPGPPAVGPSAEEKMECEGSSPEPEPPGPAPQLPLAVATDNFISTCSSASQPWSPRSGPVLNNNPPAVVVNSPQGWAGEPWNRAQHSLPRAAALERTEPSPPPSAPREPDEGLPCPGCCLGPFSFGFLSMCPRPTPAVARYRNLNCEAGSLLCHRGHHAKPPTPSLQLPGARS
Chain of MARK2 (Q7KZI7 whole entry): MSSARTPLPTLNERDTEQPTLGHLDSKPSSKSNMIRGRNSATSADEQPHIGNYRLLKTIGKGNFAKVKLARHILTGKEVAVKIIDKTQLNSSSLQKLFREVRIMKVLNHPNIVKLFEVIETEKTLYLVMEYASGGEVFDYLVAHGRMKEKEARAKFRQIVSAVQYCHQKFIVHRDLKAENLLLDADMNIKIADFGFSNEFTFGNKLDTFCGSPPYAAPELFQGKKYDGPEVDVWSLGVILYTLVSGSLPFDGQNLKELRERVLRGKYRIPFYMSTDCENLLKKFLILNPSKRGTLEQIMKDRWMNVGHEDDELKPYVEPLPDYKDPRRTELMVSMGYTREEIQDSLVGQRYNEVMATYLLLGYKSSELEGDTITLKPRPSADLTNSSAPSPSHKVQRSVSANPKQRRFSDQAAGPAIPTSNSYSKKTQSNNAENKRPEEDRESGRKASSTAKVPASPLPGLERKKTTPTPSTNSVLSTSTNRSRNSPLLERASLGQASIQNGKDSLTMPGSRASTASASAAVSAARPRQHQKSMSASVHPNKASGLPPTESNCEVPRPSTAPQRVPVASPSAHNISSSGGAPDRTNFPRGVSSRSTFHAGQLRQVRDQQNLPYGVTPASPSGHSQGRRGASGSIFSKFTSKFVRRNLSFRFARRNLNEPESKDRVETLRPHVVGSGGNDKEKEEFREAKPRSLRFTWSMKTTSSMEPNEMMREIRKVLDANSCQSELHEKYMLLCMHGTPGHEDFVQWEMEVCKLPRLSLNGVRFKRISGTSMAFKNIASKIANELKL
Chain of Aurora A (O14965 whole entry): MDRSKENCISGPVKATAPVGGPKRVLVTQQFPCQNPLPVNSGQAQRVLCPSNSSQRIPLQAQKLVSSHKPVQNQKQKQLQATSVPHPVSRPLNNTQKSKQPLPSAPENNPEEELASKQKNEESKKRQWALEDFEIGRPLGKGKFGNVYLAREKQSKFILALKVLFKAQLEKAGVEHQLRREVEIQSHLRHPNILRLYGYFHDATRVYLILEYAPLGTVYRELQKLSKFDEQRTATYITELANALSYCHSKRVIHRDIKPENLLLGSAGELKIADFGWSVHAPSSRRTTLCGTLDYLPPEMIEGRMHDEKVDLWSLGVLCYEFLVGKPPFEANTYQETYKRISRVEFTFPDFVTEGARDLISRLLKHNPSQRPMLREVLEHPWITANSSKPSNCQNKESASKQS

In general, remaining activity refers to the signal under treatment as a percentage of the control signal. With `CC(C)c1ccccc1-c1nc(NCc2ccccn2)c2c(ccn2C)n1` [Compound 40], the remaining activity at 10 µM in [1] was determined as 101%; in assay [2], 95%; in assay [3], 99%; in [4] it was 98%; in [5] it was 95%; in assay [6] it was 94%. In addition, the remaining activity at 10 µM in assay [7] was determined as 138%; in assay [8] it was 114%; in assay [9], 94%; in assay [10], 114%; in [11], 101%; in assay [12], 111%. In addition, the remaining activity at 10 µM in [13] came out at 107%; in assay [14], 98%; in [15], 106%; in assay [16], 78%; in [17] it was 97%; in assay [18], 105%. The remaining activity at 10 µM was 106% in [19]; 103% in [20]; 86% in assay [21]; 120% in [22]; 102% in [23]; 90% in assay [24].

A word on the IC50: it is the concentration needed to halve the response being measured. As for `FC(F)(F)c1ccccc1-c1nc(NCc2cccs2)c2ccccc2n1` [Compound 1, NIH-12848, reference compound], the ΔTm at 63 µM in assay [25] was -0.2 ± 0.4 °C. Moreover, the IC50 in assay [26] is more than 100 µM; in assay [27], 2 to 3 µM.

These data come from publication PMC9097471, “Development of Selective Phosphatidylinositol 5-Phosphate 4-Kinase γ Inhibitors with a Non-ATP-competitive, Allosteric Binding Mode” (Journal of Medicinal Chemistry, 2022).
